According to patent US20250109343A1, “CORROSION INHIBITOR” (INNOSPEC LIMITED, priority 2022, published 2025):

Key:
[1] = Linear Polarisation Resistance (LPR) Test, Example 30, synthetic brine composition 1 or 2
[2] = LPR test of Example 31, variety of brines and brine/depolarised kerosene fluids
Method: The LPR test was carried out using the corrosion inhibitor of Example 1. The LPR test was carried out using the same conditions as the LPR test of Example 30 except for the composition of the corrosive fluid, the temperature, and the dose of the corrosion inhibitor.

[3] = brine composition 1, dose 40 ppm of product, one addition, time 19.9-20.1 hr, 60° C., constant CO2 sparge
[4] = brine composition 2, dose 40* ppm, four additions each of 10 ppm, time 25.3-28.8 hr, 60° C., constant CO2 sparge
[5] = Test 1: brine composition 1 (Table 6), 60 ° C., dose 50 ppm, 4 hours
[6] = Test 3: brine composition 3 and depolarised kerosene 90:10 volume ratio, 82 ° C., dose 60 ppm, 5 hours
[7] = Test 4: brine composition 4 and depolarised kerosene 90:10 volume ratio, 82 ° C., dose 60 ppm, 5 hours
[8] = Test 5: brine composition 5 and depolarised kerosene 90:10 volume ratio, 82 ° C., dose 60 ppm, 5 hours
[9] = Test 6: brine composition 6 and depolarised kerosene 90:10 volume ratio, 82 ° C., dose 60 ppm, 5 hours

disodium 2-octen-1-ylsuccinate [Example 5]
Corrosion protection [1, 3]: 89%
Corrosion rate [1, 3]: 0.46 mmpy

potassium PEG200 2-octen-1-yI succinate [Example 21]
Corrosion protection [1, 4]: 59%
Corrosion rate [1, 4]: 2.24 mmpy

sodium 1,6-hexanediol dodecenyl succinate [Example 15]
Corrosion protection [1]: 41%
Corrosion rate [1]: 1.68 mmpy

sodium 1-hexanol dodecenyl succinate [Example 10]
Corrosion protection [1]: 92%
Corrosion rate [1]: 0.29 mmpy

sodium 2-ethyl-1,3-hexanediol dodecenyl succinate [Example 9]
Corrosion protection [1]: 51%
Corrosion rate [1]: 2.02 mmpy

sodium 3-dimethylaminopropylamine dodecenyl succinamide [Example 13]
Corrosion protection [1]: 46%
Corrosion rate [1]: 1.73 mmpy

sodium PEG200 2-octen-1-ylsuccinate [Example 1]
Corrosion protection [2, 5]: 96%
Corrosion rate [2, 5]: 0.1320 mmpy
Corrosion protection ([2]; Test 2: brine composition 2 (Table 6), 60 ° C., dose 50 ppm, 4 hours): 96%
Corrosion protection [2, 6]: 99%
Corrosion rate [2, 6]: 0.0358 mmpy
Corrosion protection [2, 7]: 98%
Corrosion rate [2, 7]: 0.0833 mmpy
Corrosion protection [2, 8]: 96%
Corrosion rate [2, 8]: 0.1387 mmpy
Corrosion protection [2, 9]: 95%
Corrosion rate [2, 9]: 0.1646 mmpy
Corrosion inhibition, result in words ([2]; variety of brines and brine/hydrocarbon emulsions): effective corrosion inhibitor
Corrosion protection [1]: 99%
Corrosion rate [1]: 0.03 mmpy

sodium benzyl alcohol dodecenyl succinate [Example 8]
Corrosion protection [1]: 96%
Corrosion rate [1]: 0.14 mmpy

sodium diethanolamine dodecenylsuccinamide [Example 4]
Corrosion protection [1]: 99%
Corrosion rate [1]: 0.06 mmpy

sodium dodecanol phthalate [Example 26]
Corrosion protection [1]: 99%

sodium furfuryl alcohol dodecenyl succinic anhydride [Example 28]
Corrosion protection [1]: 99%
Corrosion rate [1]: 0.04 mmpy

triethanolamine PEG200 2-octen-1-yl succinate [Example 22]
Corrosion protection [1]: 68%
Corrosion rate [1]: 2.44 mmpy
